Measurements: US20240025884A1 (Dong-A ST Co., Ltd., priority 2022, published 2024)

Biological target: GCN2 (Homo sapiens (Human), UniProt Q9P2K8)
Assay: GCN2 Biochemical Assay (TR-FRET, GFP-eIF2S1 substrate phosphorylation)
Conditions: read-out: IC50 (GCN2 Inhibitory Activity)
Procedure: Experimental Example 1: GCN2 Biochemical Assay
An inhibitory effect of the inventive compound on GCN2 was identified as follows.
384-well (Greiner #784075) (or 1536-well [Greiner #782075]) plates containing 60 nl (or 20 nl for 1536-well) of compound in 100% DMSO (10 concentrations serially diluted 3.16-fold) were prepared. Two copies of plates were used—one for the GCN2 assay and a second for an artifact plate. Working reagents were prepared as follows—reaction buffer: Tris pH 7.5 20 mM, MgCl2 5 mM, DTT 1 mM, Brij-35 0.005%, EGTA 0.5 mM in water; 2× enzyme solution: GCN2 (produced in-house) 1.6 nM in reaction buffer; 2× substrate solution: GFP-eIFS1 (Thermo Fisher Scientific, PV4809) 50 nM, ATP 0.2 mM, tRNA 0.4 mg/ml in reaction buffer; p-GFP-eIF2S1 (artifact) solution: p-GFP-eIFS1 (produced by incubation of 100 nM GFP-eIF2S1 in reaction buffer with 100 uM ATP and 1 nM PERK KD enzyme for 3 hr at room temperature) 2 nM in reaction buffer; 3× stop/antibody solution: p-GFP-EIF2S1 Th-Ab (Thermo Fisher Scientific, PV4816) 6 nM, AZ13933939 3 uM, BSA 3% in reaction buffer. Reagents were loaded onto a liquid dispenser (Certus FLEX, Trajan Scientific and Medical), and 3 ul (1 ul for 1536-well) of 2× enzyme solution, followed by 3 ul (1 ul for 1536-well) of 2× substrate solution was added to the plates. When small numbers of plates were processed, the enzyme solution was added first to all plates, then the valve used for the substrate solution was primed immediately prior to use. Plates were tapped or spun 1 min/1K/RT to ensure proper mixing, followed by incubation at room temperature for 70 mins, covered/stacked in the dark. For the artifact plate, 6 ul of p-GFP-eIF2S1 solution was added prior to adding the stop/antibody solution. 3 ul (1 ul for 1536-well) of 3× stop/antibody solution was added to the plates, followed by a spin-down for 1 min/1K/RT, and incubation for 2-3 hr, sealed or covered with lids in the dark at room temperature. Plates were read on a plate reader (PHERAstar FSX, BMF Labtech) at Ex 340/Em 490/Em 520 nm.

Sequence of GCN2 (Q9P2K8 whole entry): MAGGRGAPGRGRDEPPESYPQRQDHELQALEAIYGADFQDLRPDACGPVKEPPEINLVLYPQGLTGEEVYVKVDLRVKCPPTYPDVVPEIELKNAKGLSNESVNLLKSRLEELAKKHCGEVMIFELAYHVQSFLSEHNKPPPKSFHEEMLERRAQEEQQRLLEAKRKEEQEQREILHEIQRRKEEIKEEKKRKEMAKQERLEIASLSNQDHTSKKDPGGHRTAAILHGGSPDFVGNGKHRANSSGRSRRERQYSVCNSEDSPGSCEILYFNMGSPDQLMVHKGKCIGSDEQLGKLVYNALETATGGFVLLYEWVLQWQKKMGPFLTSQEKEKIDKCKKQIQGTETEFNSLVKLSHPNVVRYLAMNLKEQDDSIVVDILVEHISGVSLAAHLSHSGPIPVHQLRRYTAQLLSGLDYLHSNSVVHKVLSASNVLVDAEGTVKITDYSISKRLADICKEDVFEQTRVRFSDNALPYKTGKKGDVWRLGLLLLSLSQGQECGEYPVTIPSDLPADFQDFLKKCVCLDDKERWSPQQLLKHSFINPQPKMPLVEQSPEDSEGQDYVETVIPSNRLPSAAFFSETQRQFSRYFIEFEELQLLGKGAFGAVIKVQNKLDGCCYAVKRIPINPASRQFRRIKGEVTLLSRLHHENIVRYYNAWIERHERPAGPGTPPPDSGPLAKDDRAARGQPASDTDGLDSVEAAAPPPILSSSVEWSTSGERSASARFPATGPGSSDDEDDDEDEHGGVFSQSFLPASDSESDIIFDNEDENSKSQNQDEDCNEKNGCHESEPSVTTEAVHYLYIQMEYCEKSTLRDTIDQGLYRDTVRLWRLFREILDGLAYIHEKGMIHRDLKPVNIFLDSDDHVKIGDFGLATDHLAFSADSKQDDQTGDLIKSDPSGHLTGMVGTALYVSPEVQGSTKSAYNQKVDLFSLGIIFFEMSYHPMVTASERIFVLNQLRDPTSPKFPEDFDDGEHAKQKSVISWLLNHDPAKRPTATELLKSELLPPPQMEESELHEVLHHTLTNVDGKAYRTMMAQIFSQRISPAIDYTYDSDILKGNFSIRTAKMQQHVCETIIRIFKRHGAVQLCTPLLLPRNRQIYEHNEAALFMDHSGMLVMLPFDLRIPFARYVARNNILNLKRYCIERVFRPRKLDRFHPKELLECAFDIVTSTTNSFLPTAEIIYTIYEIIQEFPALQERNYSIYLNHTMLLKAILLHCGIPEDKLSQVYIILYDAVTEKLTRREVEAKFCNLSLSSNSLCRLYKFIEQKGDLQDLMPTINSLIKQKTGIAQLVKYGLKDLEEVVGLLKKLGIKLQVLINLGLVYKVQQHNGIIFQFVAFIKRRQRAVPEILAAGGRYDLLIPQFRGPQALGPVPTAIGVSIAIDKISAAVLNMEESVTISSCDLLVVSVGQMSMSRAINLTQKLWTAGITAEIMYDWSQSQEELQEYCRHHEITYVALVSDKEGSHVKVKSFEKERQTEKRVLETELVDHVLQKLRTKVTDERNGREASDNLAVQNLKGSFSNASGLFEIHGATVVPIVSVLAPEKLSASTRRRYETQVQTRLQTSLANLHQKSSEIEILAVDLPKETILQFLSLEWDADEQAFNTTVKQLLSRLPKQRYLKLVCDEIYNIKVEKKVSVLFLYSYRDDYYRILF

Row | Compound | IC50 [nM]
1 | Cc1cnc(Nc2cc(C)n(C)n2)nc1-c1c[nH]c2c(N(C)C(=O)CN3CC[C@H](Oc4ccncn4)C3)cccc12 [Example 21, (S)-N-(3-(2-((1,5-dimethyl-1H-pyrazol-3-yl)amino)-5-methylpyrimidin-4-yl)-1H-indol-7-yl)-N-methyl-2-(3-(pyrimidin-4-yloxy)pyrrolidin-1-yl)acetamide] | 10 to 100
2 | Cc1cnc(Nc2cc(C)n(C)n2)nc1-c1c[nH]c2c(NC(=O)C(C)N3CC[C@H](Oc4ccncc4)C3)cccc12 (stereo partly drawn) [Example 23, N-(3-(2-((1,5-dimethyl-1H-pyrazol-3-yl)amino)-5-methylpyrimidin-4-yl)-1H-indol-7-yl)-2-((S)-3-(pyridin-4-yloxy)pyrrolidin-1-yl)propenamide] | 100 to 1000
3 | Cc1cnc(Nc2cc(C)n(C)n2)nc1-c1c[nH]c2c(NC(=O)C(C)(C)N3CCCC3)cccc12 [Example 24, N-(3-(2-((1,5-dimethyl-1H-pyrazol-3-yl)amino)-5-methylpyrimidin-4-yl)-1H-indol-7-yl)-2-methyl-2-(pyrrolidin-1-yl)propenamide] | 100 to 1000
4 | Cc1cnc(Nc2cc(C)n(C)n2)nc1-c1c[nH]c2c(NC(=O)C(C)(C)N3CC[C@H](Oc4ccncc4)C3)cccc12 [Example 25, (S)-N-(3-(2-((1,5-dimethyl-1H-pyrazol-3-yl)amino)-5-methylpyrimidin-4-yl)-1H-indol-7-yl)-2-methyl-2-(3-(pyridin-4-yloxy)pyrrolidin-1-yl)propanamide] | > 1000
5 | Cc1cnc(Nc2cc(C)n(C)n2)nc1-c1c[nH]c2c(NC(=O)CN3CC(O)C3)cccc12 [Example 26, N-(3-(2-((1,5-dimethyl-1H-pyrazol-3-yl)amino)-5-methylpyrimidin-4-yl)-1H-indol-7-yl)-2-(3-hydroxyazetidin-1-yl)acetamide] | 10 to 100
6 | Cc1cnc(Nc2cc(C)n(C)n2)nc1-c1c[nH]c2c(NC(=O)CN3CC(Oc4ccncc4)C3)cccc12 [Example 28, N-(3-(2-((1,5-dimethyl-1H-pyrazol-3-yl)amino)-5-methylpyrimidin-4-yl)-1H-indol-7-yl)-2-(3-(pyridin-4-yloxy)azetidin-1-yl)acetamide] | 10 to 100
7 | Cc1cnc(Nc2cc(C)n(C)n2)nc1-c1c[nH]c2c(NC(=O)CN3CC(Oc4cccnc4)C3)cccc12 [Example 30, N-(3-(2-((1,5-dimethyl-1H-pyrazol-3-yl)amino)-5-methylpyrimidin-4-yl)-1H-indol-7-yl)-2-(3-(pyridin-3-yloxy)azetidin-1-yl)acetamide] | 100 to 1000
8 | COC(=O)C1CN(CC(=O)Nc2cccc3c(-c4nc(Nc5cc(C)n(C)n5)ncc4C)c[nH]c23)C1 [Example 31, methyl 1-(2-((3-(2-((1,5-dimethyl-1H-pyrazol-3-yl)amino)-5-methylpyrimidin-4-yl)-1H-indol-7-yl)amino)-2-oxoethyl)azetidine-3-carboxylate] | 10 to 100
9 | Cc1cnc(Nc2cc(C)n(C)n2)nc1-c1c[nH]c2c(NC(=O)CN3CC=C(c4ccncc4)CC3)cccc12 [Example 34, 2-(3,6-dihydro-[4,4′-bipyridin]-1(2H)-yl)-N-(3-(2-((1,5-dimethyl-1H-pyrazol-3-yl)amino)-5-methylpyrimidin-4-yl)-1H-indol-7-yl)acetamide] | 100 to 1000
10 | Cc1cnc(Nc2cc(C)n(C)n2)nc1-c1c[nH]c2c(NC(=O)CN3CC=C(c4cnn(C)c4)CC3)cccc12 [Example 35, N-(3-(2-((1,5-dimethyl-1H-pyrazol-3-yl)amino)-5-methylpyrimidin-4-yl)-1H-indol-7-yl)-2-(4-(1-methyl-1H-pyrazol-4-yl)-3,6-dihydropyridin-1(2H)-yl)acetamide] | 100 to 1000
11 | Cc1cnc(Nc2cc(C)n(C)n2)nc1-c1c[nH]c2c(NC(=O)CN3CCC(N4CCN(C)CC4)CC3)cccc12 [Example 36, N-(3-(2-((1,5-dimethyl-1H-pyrazol-3-yl)amino)-5-methylpyrimidin-4-yl)-1H-indol-7-yl)-2-(4-(4-methylpiperazin-1-yl)piperidin-1-yl)acetamide] | 100 to 1000
12 | Cc1cnc(Nc2cc(C)n(C)n2)nc1-c1c[nH]c2c(NC(=O)CN3CCC(N4CCOCC4)CC3)cccc12 [Example 37, N-(3-(2-((1,5-dimethyl-1H-pyrazol-3-yl)amino)-5-methylpyrimidin-4-yl)-1H-indol-7-yl)-2-(4-morpholinopiperidin-1-yl)acetamide] | 100 to 1000
13 | Cc1cnc(Nc2cc(C)n(C)n2)nc1-c1c[nH]c2c(NC(=O)CN3CCC(Oc4ccccn4)CC3)cccc12 [Example 39, N-(3-(2-((1,5-dimethyl-1H-pyrazol-3-yl)amino)-5-methylpyrimidin-4-yl)-1H-indol-7-yl)-2-(4-(pyridin-2-yloxy)piperidin-1-yl)acetamide] | 100 to 1000

Other lines, results leading:

Row | IC50 [nM] | Compound
14 | 100 to 1000 | Cc1cnc(Nc2cc(C)n(C)n2)nc1-c1c[nH]c2c(NC(=O)C(C)N3CCCC3)cccc12 (centres unmarked) [Example 22, N-(3-(2-((1,5-dimethyl-1H-pyrazol-3-yl)amino)-5-methylpyrimidin-4-yl)-1H-indol-7-yl)-2-(pyrrolidin-1-yl)propanamide]
15 | 10 to 100 | Cc1cnc(Nc2cc(C)n(C)n2)nc1-c1c[nH]c2c(NC(=O)CN3CC(OCc4ccncc4)C3)cccc12 [Example 27, N-(3-(2-((1,5-dimethyl-1H-pyrazol-3-yl)amino)-5-methylpyrimidin-4-yl)-1H-indol-7-yl)-2-(3-(pyridin-4-ylmethoxy)azetidin-1-yl)acetamide]
16 | 10 to 100 | Cc1cnc(Nc2cc(C)n(C)n2)nc1-c1c[nH]c2c(NC(=O)CN3CC(Oc4ccncn4)C3)cccc12 [Example 29, N-(3-(2-((1,5-dimethyl-1H-pyrazol-3-yl)amino)-5-methylpyrimidin-4-yl)-1H-indol-7-yl)-2-(3-(pyrimidin-4-yloxy)azetidin-1-yl)acetamide]
17 | 10 to 100 | Cc1cnc(Nc2cc(C)n(C)n2)nc1-c1c[nH]c2c(NC(=O)CN3CC(C(=O)O)C3)cccc12 [Example 32, 1-(2-((3-(2-((1,5-dimethyl-1H-pyrazol-3-yl)amino)-5-methylpyrimidin-4-yl)-1H-indol-7-yl)amino)-2-oxoethyl)azetidine-3-carboxylic acid]
18 | 10 to 100 | Cc1cnc(Nc2cc(C)n(C)n2)nc1-c1c[nH]c2c(NC(=O)CN3CC(Oc4cc(C(=O)NC5CC5)on4)C3)cccc12 [Example 33, N-cyclopropyl-3-((1-(2-((3-(2-((1,5-dimethyl-1H-pyrazol-3-yl)amino)-5-methylpyrimidin-4-yl)-1H-indol-7-yl)amino)-2-oxoethyl)azetidin-3-yl)oxy)isoxazole-5-carboxamide]
19 | 100 to 1000 | Cc1cnc(Nc2cc(C)n(C)n2)nc1-c1c[nH]c2c(NC(=O)CN3CCC(Oc4cccnc4)CC3)cccc12 [Example 38, N-(3-(2-((1,5-dimethyl-1H-pyrazol-3-yl)amino)-5-methylpyrimidin-4-yl)-1H-indol-7-yl)-2-(4-(pyridin-3-yloxy)piperidin-1-yl)acetamide]
20 | 100 to 1000 | Cc1cnc(Nc2cc(C)n(C)n2)nc1-c1c[nH]c2c(NC(=O)CN3CCC(Oc4ccncc4)CC3)cccc12 [Example 40, N-(3-(2-((1,5-dimethyl-1H-pyrazol-3-yl)amino)-5-methylpyrimidin-4-yl)-1H-indol-7-yl)-2-(4-(pyridin-4-yloxy)piperidin-1-yl)acetamide]
